Reference: article PMC10510324, “A Biomimetic C-Terminal Extension Strategy for Photocaging Amidated Neuropeptides” (Journal of the American Chemical Society, 2023)
Starred links: 1 amine or outer side, 2 acyl side, 3 side chain; linkers in the order of their positions; H or OH if unused. Non-standard residues stand in square brackets, D forms with d. Residues, ends and D or L forms follow the SMILES beside them. No end group written: not given here. X1 = COc1cc(C(CC(=O)[*:2])N[*:1])c([N+](=O)[O-])cc1OC; DMNBA = dimethoxynitrobenzyl beta-alanine, racemic

Legend:
[1] = molecular target: T1, OTR (Mus musculus, UniProt P97926); test: Whole-cell recording of membrane currents, PV interneurons of hippocampal CA1 and CA2, acute brain slices; assay type: cell-based
T1 construct: from tissue; host or cells: acute mouse brain slices, PV interneurons of hippocampal CA1 and CA2 (PvalbCre; Ai14 mice)
T1 sequence (P97926 1-388): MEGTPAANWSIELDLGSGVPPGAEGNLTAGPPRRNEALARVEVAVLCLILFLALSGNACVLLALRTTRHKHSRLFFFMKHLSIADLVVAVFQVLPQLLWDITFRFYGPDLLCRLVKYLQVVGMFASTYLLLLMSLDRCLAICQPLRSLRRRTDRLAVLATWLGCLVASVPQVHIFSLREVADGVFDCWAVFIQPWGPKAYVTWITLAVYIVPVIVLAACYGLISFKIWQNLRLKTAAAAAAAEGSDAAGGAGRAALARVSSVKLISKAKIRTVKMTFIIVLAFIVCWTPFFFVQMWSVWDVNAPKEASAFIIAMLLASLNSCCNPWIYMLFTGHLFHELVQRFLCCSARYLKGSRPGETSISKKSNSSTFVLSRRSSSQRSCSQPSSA
Source text: (§1) Photoactivatable neuropeptides are powerful tools that can drive studies into the mechanisms of endogenous receptor signaling in acute brain slices.[3],[8],[40] To determine if NPP-caged peptides are compatible with such experiments, we established electrophysiological assays for measuring the activation of GRPR, OTR, NK1R, and CCK2R in acute brain slices taken from transgenic mice. These assays involved whole cell recordings of membrane currents from genetically defined neurons located in different brain regions where endogenous receptor activation produces inward, excitatory currents that facilitate action potential firing. Neuropeptide receptor-expressing cells were identified for fluorescence-guided, targeted electrophysiological recordings using transgenic mice that contain transgenes encoding Cre-recombinase under a promotor that is specific to the cell of interest, as well as a Cre-dependent tdTomato fluorescent protein via the Ai14 (Rosa26-lsl-tdTomato) reporter strain. […]
(§2) (A) Average inward currents over time after bath application of GRP(14-27)-NPP (3 μM, n = 5 cells from 4 mice) or GRP(14-27) (300 nM, n = 5 from 4 mice), recorded from fluorescently labeled VIP interneurons in layer 1 of the motor cortex. Data are expressed as the mean ± SEM. […] Data are expressed as the mean ± SEM. […] Data are expressed as the mean ± SEM. […] Data are expressed as the mean ± SEM. […]

[2] = molecular target: T2, GRPR (Mus musculus, UniProt P21729); test: Whole-cell recording of membrane currents, VIP interneurons of motor cortex, acute brain slices; assay type: cell-based
T2 construct: from tissue; host or cells: acute mouse brain slices, VIP interneurons of primary motor cortex (VipCre; Ai14 mice)
Source text: as §1, §2

[3] = molecular target: T3, gastrin-releasing peptide receptor (GRPR) (Mus musculus, UniProt P21729); test: GloSensor cAMP assay of GPCR activation, GRPR; assay type: cell-based; conditions: for EC50: GloSensor cAMP, n = 10 wells per data point
T3 construct: host or cells: HEK293T
Source text: To determine the effectiveness of the C-TEx caging strategy at attenuating peptide activity, we conducted a live-cell functional assay of GPCR activation in HEK293T cells transfected to express the primary receptors for each neuropeptide. The GloSensor assay reports changes in cyclic adenosine monophosphate (cAMP) signaling as a function of GPCR activation. […] To adapt this cAMP assay to report the activation of Gq-coupled GPCRs, we coexpressed a chimeric Gαs/Gαq protein (sq5) that allows Gq-coupled GPCRs to strongly engage the Gs pathway to elevate cAMP via activation of adenylyl cyclase.[39]
Figure 3 In vitro characterization of NPP-caged neuropeptides using a functional assay of G protein signaling. (A) Dose–response curves at the gastrin-releasing peptide receptor (GRPR) using a GloSensor assay of cAMP signaling in HEK293T cells (n = 10 wells per data point). Data were normalized to the maximal response to GRP(14-27) (300 nM) and are expressed as the mean ± SEM.
Reagent type (species) Designation Source or Identifiers
GRPR plasmid mGRPR Genscript Clone ID OMu14220D
OTR plasmid hOXR cdna.org Cat # OXTR000000
CCK1R hCCK1R cdna.org Cat # CCKAR00000
CCK2R plasmid hCCK2R cdna.org Cat # CCKBR00000
NK1R plasmid hNK1R cdna.org Cat # TACR100000
HEK293T cells ATCC.org Cat # CRL-3216
GloSensor plasmid pGloSensor - Promega Cat # E2301
GloSensor reagent cAMP Reagent Promega Product # E1291
VIP-IRES-CRE, C57Bl/6J The Jackson background (M. musculus, VipCre Laboratory Cat # 010908
Ai14, C57Bl/6J Rosa26-lsl- The Jackson background (M. musculus, tdTomato (Ai14) Laboratory Cat # 007914 […]
C57Bl/6J background (M. ChatCre The Jackson Cat # 006410 musculus, male and Laboratory
Pvalb-IRES-Cre, C57Bl/6J The Jackson background (M. musculus, PvalbCre Cat # 017320 male and female) Laboratory […]
parent peptide. […] The solutions were illuminated in 15 sec periods, after which samples were removed and analyzed by LC-MS using a linear gradient (water/MeCN 5%/95% → MeCN 100%, 0-8 min with 0.1% formic acid) and a C-18 column (4.6 × 50 mm, 1.8 μm) (Agilent). Each compound was assessed in triplicate. […]

[4] = molecular target: T4, NK1R (Mus musculus, UniProt P30548); test: Whole-cell recording of membrane currents, striatal cholinergic interneurons, acute brain slices; assay type: cell-based
T4 construct: from tissue; host or cells: acute mouse brain slices, cholinergic interneurons of dorsal striatum (ChatCre; Ai14 mice)
Source text: Photoactivatable neuropeptides are powerful tools that can drive studies into the mechanisms of endogenous receptor signaling in acute brain slices.[3],[8],[40] To determine if NPP-caged peptides are compatible with such experiments, we established electrophysiological assays for measuring the activation of GRPR, OTR, NK1R, and CCK2R in acute brain slices taken from transgenic mice. These assays involved whole cell recordings of membrane currents from genetically defined neurons located in different brain regions where endogenous receptor activation produces inward, excitatory currents that facilitate action potential firing. Neuropeptide receptor-expressing cells were identified for fluorescence-guided, targeted electrophysiological recordings using transgenic mice that contain transgenes encoding Cre-recombinase under a promotor that is specific to the cell of interest, as well as a Cre-dependent tdTomato fluorescent protein via the Ai14 (Rosa26-lsl-tdTomato) reporter strain.
Our experimental framework for evaluating NPP-caged peptides in brain slices is as follows. To assess residual activity, we compared the membrane currents evoked by bath application of the parent peptide and NPP-caged peptide. To evaluate photoactivation, we compared the peak current evoked by a single, high-intensity (20–200 ms, 50–80 mW) light flash from either a 355 nm laser or 365 nm LED, to the current evoked by bath application of the parent peptide, the NPP-caged peptide without light, and NPP-peptide photoactivation in the presence of a receptor antagonist.
(A) Average inward currents over time after bath application of GRP(14-27)-NPP (3 μM, n = 5 cells from 4 mice) or GRP(14-27) (300 nM, n = 5 from 4 mice), recorded from fluorescently labeled VIP interneurons in layer 1 of the motor cortex. Data are expressed as the mean ± SEM. (B) Average inward currents evoked by photoactivation of GRP(14-27)-NPP (3 μM) with an […] light flash in the absence (green, n = 10 cells from 4 mice) and presence of the GRPR antagonist BW1023U90 (1 μM) (black, n = 6 cells from 2 mice). […] Data are expressed as the mean ± SEM. […] Data are expressed as the mean ± SEM. […] Data are expressed as the mean ± SEM. […] Data are expressed as the mean ± SEM.
Brain slice preparation. All procedures were performed in accordance with protocols approved by the University of California San Diego Institutional Animal Care and Use Committee (IACUC) following guidelines described in the US National Institutes of Health Guide for Care and Use of Laboratory Animals (UCSD IACUC protocol S16171). Experiments were conducted using mice of both sexes and the data were combined. From Vip Cre; Rosa26-lsl-tdTomato (Ai14), mouse age ranged from P15-30. From Pvalb Cre; Rosa26-lsl-tdTomato (Ai14), mouse age ranged from P20-35. From Chat Cre; Rosa26-lsl-tdTomato (Ai14), mouse age ranged from P40-100. Mice were anesthetized with isoﬂurane and decapitated, and the brain was removed, blocked, and mounted in a VT1000S vibratome (Leica Instruments). For recordings from cortex and striatum, coronal slices (300 μm) were prepared, and for hippocampus, horizontal slices

[5] = molecular target: gastrin-releasing peptide receptor (UniProt P30550)
Sequence of gastrin-releasing peptide receptor (P30550 whole entry): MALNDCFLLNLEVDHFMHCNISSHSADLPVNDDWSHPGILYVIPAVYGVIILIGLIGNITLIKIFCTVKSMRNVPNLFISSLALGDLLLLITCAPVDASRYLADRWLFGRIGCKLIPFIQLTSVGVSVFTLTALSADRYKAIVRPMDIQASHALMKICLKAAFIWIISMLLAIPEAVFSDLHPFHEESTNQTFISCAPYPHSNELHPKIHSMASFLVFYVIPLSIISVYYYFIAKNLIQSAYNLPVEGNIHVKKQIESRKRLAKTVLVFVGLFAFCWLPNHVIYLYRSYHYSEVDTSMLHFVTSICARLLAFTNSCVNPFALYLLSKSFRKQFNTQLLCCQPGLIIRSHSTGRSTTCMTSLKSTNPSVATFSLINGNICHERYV

T4 sequence (P30548 whole entry): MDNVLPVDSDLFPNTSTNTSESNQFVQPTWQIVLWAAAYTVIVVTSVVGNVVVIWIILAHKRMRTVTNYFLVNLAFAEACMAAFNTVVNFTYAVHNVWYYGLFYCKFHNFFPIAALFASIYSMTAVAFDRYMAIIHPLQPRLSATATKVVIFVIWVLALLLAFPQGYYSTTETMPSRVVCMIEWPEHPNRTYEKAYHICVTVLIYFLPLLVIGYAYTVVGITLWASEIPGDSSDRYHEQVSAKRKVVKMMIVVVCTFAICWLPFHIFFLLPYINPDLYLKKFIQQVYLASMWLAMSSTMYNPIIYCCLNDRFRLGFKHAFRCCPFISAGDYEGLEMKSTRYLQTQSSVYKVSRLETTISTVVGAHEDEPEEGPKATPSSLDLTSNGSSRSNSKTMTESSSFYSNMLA
T3 sequence (P21729 whole entry): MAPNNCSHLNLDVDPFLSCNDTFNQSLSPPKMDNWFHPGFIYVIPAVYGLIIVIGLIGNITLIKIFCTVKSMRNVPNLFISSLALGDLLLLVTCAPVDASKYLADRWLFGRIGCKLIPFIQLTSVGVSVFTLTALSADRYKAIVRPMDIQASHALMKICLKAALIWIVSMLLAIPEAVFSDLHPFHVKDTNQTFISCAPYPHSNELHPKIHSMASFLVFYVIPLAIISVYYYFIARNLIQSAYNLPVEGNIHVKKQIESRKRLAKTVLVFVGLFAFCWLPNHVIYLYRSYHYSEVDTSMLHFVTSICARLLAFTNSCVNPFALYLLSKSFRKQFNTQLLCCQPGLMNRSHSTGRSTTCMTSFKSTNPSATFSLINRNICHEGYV
T2 sequence (P21729 whole entry): as above

With “(d(CH2)5^1,Tyr(Me)^2,Thr^4,Orn^8,des-Gly-NH2^9)-Vasotocin [OTA]” the “block of light-evoked OT-NPP current” value ([1]; antagonist 1 μM) was “blocked”.

For `CSCC[C@H](NC(=O)[C@H](CC(C)C)NC(=O)[C@H](Cc1c[nH]cn1)NC(=O)CNC(=O)[C@@H](NC(=O)[C@H](C)NC(=O)[C@H](Cc1c[nH]c2ccccc12)NC(=O)[C@H](Cc1c[nH]cn1)NC(=O)[C@H](CC(N)=O)NC(=O)CNC(=O)[C@H](CCCNC(=N)N)NC(=O)[C@@H]1CCCN1C(=O)[C@H](Cc1ccc(O)cc1)NC(=O)[C@@H](N)CCSC)C(C)C)C(N)=O` [GRP(14-27), Gastrin-releasing peptide (14-27)], the “peak current amplitude, bath application” value ([2]; 300 nM, n = 5 cells from 4 mice, held at −55 mV, mean ± SEM) was −62.8 ± 12.8 and the EC50 ([3]; HEK293T cells coexpressing chimeric Gαs/Gαq (sq5), normalized to GRP(14-27) 300 nM) was 0.0006 µM.

With `COc1ccccc1CC(=N)N1C[C@@H]2C(=O)CCC(c3ccccc3)(c3ccccc3)[C@@H]2C1` [RP67580, (3aR,7aR)-Octahydro-2-[1-imino-2-(2-methoxyphenyl)ethyl]-7,7-diphenyl-4H-isoindol] the “block of light-evoked SP-NPP current” value ([4]; antagonist 10 μM) was “largely blocked”.

With `CC[C@H](C)[C@@H]1NC(=O)[C@H](Cc2ccc(O)cc2)NC(=O)[C@@H](N)CSSC[C@@H](C(=O)N2CCC[C@H]2C(=O)N[C@@H](CC(C)C)C(=O)NCC(N)=O)NC(=O)[C@H](CC(N)=O)NC(=O)[C@H](CCC(N)=O)NC1=O` [OT, Oxytocin] the “peak current amplitude, bath application” value ([1]; 300 nM, n = 7 from 4 mice, held at -70 mV, mean ± SEM) was −35.8 ± 5.7.

“3-Phenylpropanoyl-His-Trp-Ala-Val-D-Ala-His-D-Pro-CH2NH-Phe-NH2 [BW1023U90]” was tested, and the “block of light-evoked GRP(14-27)-NPP current” value ([2]; antagonist 1 μM) was “completely blocked”.

In the case of `COc1cc(C(CC(=O)N[C@@H](CCCNC(=N)N)C(=O)N[C@@H](CCCCN)C(=O)N2CCC[C@H]2C(=O)N[C@@H](CCC(=O)O)C(=O)N[C@@H](CCCCN)C(=O)O)NC(=O)[C@H](CCSC)NC(=O)[C@H](CC(C)C)NC(=O)[C@H](Cc2c[nH]cn2)NC(=O)CNC(=O)[C@@H](NC(=O)[C@H](C)NC(=O)[C@H](Cc2c[nH]c3ccccc23)NC(=O)[C@H](Cc2c[nH]cn2)NC(=O)[C@H](CC(N)=O)NC(=O)CNC(=O)[C@H](CCCNC(=N)N)NC(=O)[C@@H]2CCCN2C(=O)[C@H](Cc2ccc(O)cc2)NC(=O)[C@@H](N)CCSC)C(C)C)c([N+](=O)[O-])cc1OC` (stereo partly drawn) [GRP(14-27)-NPP] (H-MYPRGNHWAVGHLM[X1]RKPEK-OH), the EC50 ([3]; HEK293T cells coexpressing sq5, no light) is reported as 6.1 µM and the “reduction of EC50 (potency) at the GRPR by NPP-caging” value ([3]; caged versus parent peptide) is reported as ~10,000 fold.

For SP-NPP: NPP-caged substance P, the “peak current amplitude, bath application without light” value ([4]; 1 μM, 1:1 mixture of diastereomers, n = 6 cells from 5 mice, mean ± SEM) was −5.2 ± 13.6, the “peak current amplitude, photoactivation (+ UV)” value ([4]; 1 μM, 1 × 20 ms, 84 mW, 365 nm LED, n = 5 cells from 5 mice, mean ± SEM) was −265.5 ± 19.7 and the “activity on bath application without light” value ([4]; 3 μM as printed in the text, 1:1 mixture of diastereomers) was “inactive”. The “τon of light-evoked current” value ([4]; 1 × 20 ms, 84 mW, 365 nm LED) was 1.1 s and the “τoff slow of light-evoked current” value ([4]; 1 × 20 ms, 84 mW, 365 nm LED, biphasic decay) was 19.5 s.

MYPRGNHWAVGHLM[DMNBA]RKPEK (also: DMNBA racemic, diastereomers not resolved) [GRP(14-27)-NPP] gave an EC50 of receptor activation, GloSensor cAMP assay in HEK293T cells co-expressing the chimeric Gαs/Gαq protein sq5 [5] of 6.1 µM.

With MYPRGNHWAVGHLM-NH2 [gastrin-releasing peptide (14-27)] the EC50 of receptor activation, GloSensor cAMP assay in HEK293T cells co-expressing the chimeric Gαs/Gαq protein sq5 [5] was 0.0006 µM.
